US20110015066A1, “Herbicidal Composition” (priority 2008, published 2011)

How the values were obtained:
[1] = Accelerated Heat Stability of compositions: active ingredient content before and after 14 days; assay type: physicochemical; settings: 1 %
Method: The numbers of formulations were made up as described in above examples. The concentration of Clodinafop propargyl (15%)+Metsulfuron methyl (1%) 16% WP was tested for its active stability at elevated temperature (54±2° C.) and at 3 different pH ranges as shown below.
The storage stability of the compositions according the present invention was compared with the storage stability of compositions individually and in combination as Tank, mix and plant mixes. The term Tank mix means that clodinafop-propargyl and metsulfuron methyl are mixed in the tank at the time of spraying. The term plant mix means that ready mix of the clodinafop-propargyl and metsulfuron methyl are diluted in the tank before spraying.

[2] = tested on: broad leaf weeds; assay: Field trial in wheat: weed population and biomass of broad leaf weeds; assay type: in vivo
Method: Parts and percentages are by weight unless otherwise indicated. Field tests were made at various trial sites. The performance of the new combination herbicide according to the present invention (Clodinafop 15% and metsulfuron methyl 1%), Metsulfuron methyl 20% WP and Clodinafop-propargyl 15% WP was evaluated against weed flora in wheat crop during rabi season. Recommended package of practices for wheat crop was followed to raise the crop. The herbicide treatments were applied as post emergence spray at 35 days after sowing (DAS). The data on weed population (number/m^2) and dry matter (gm/m^2) was taken after 60 days after sowing and at the harvest. Similar yields (quintal/hectare i.e. q/ha.) and yield attributed parameters like plant height, number of effective tiller, number of grain per ear-head, test weight were recorded at harvest. A statistical analysis of the entire data was carried out.
The major weed flora recorded in the experimental field were grasses like Phalaris minor and Avena fatua and broad leaf weeds namely Chenopodium album, Rumex sp., Convolvulus arvensis, Melilotus alba, Medicago denticulata, Fumaria sp. Vicia sativa and Anagalis arvensis.

[3] = tested on: Susceptible plants; settings: after post-emergence treatment; cited from earlier work

COC(=O)c1ccccc1S(=O)(=O)NC(=O)Nc1nc(C)nc(OC)n1 [metsulfuron methyl, methyl 2-(4-methoxy-6-methyl-1,3,5-triazin-2-ylcarbamoylsulfamoyl)benzoate]
Metsulfuron methyl % degradation ([1]; pH 4.5): 24.67% | Metsulfuron methyl % degradation ([1]; pH 6.8): 12.64% | Metsulfuron methyl % degradation ([1]; pH 8.5): 4.82% | control of broad leaf weeds (in words) [2]: superior control of broad leaf weeds only | time in which susceptible plants are killed [3]: 7 to 21 days
